Experimental findings from the SangsterLogP compilation are described below.

For orientation: logP means a log measure of how a compound divides between an organic and an aqueous phase. Lower therefore signals lower lipophilicity. For `CCC(=O)C(CCN(C)C)(c1ccccc1)c1ccc(Cl)cc1` (stereo not drawn), the logP was 4.9.
The value for `CCC(=O)C(CCN(C)C)(c1ccccc1)C1CCCCC1` (stereo not drawn) was 5.13.
Regarding `CCC(=O)C(CCN(C)C)(c1ccc(F)cc1)c1ccc(F)cc1`, the logP was found to be 4.84.
For `CCC(=O)C(CCN(C)C)(c1ccccc1)C1CCCC1` (stereo not drawn) the value was 4.53; for `CCC(=O)C(CCN(C)C)(c1ccccc1)c1ccc(F)cc1` (stereo not drawn), 4.19; for `CCC(=O)C(CCN(C)C)(c1ccccc1)c1ccc(OC)cc1` (stereo not drawn), 4.28.
For `CCC(=O)C(CCN(C)C)(c1ccccc1)C1CCCCCC1` (stereo not drawn) the value was 5.91.
`CCC(=O)C(CCN(C)C)(c1ccccc1)c1ccccc1` returned a logP of 4.15.
In the case of `CCC(=O)C(CCN(C)C)(c1ccccc1)c1ccc(SC)cc1` (stereo not drawn), the logP came to 4.96.
As for `CCC(=O)C(CCN(C)C)(c1ccccc1)c1ccc(C)cc1` (stereo not drawn), the logP is 4.93.
As for `CCC(=O)C(CCN(C)C)(c1ccccc1)c1ccc(O)cc1` (stereo not drawn), the logP is 3.45.
The molecule `CCC(=O)C(CCN(C)C)(c1ccccc1)c1cccc(F)c1` (stereo not drawn) yielded a logP of 4.17.
The value for `CCC(=O)C(CCN(C)C)(c1ccccc1)c1ccc(Br)cc1` (stereo not drawn) was 5.23.
